Results reported in ChEMBL document CHEMBL1201862, “PubChem BioAssay data set” (2004).
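The compound was tested at five concentrations on cells cultured in 96-well plates, with a 48-hour exposure period. GI50 marks 50% less growth.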 The source made the active and inactive calls. Cut-off read from the data, not from the text of the source: active = GI50 up to about 1.1 µM and inactive = higher.

Assays:
Assay in all cases: growth of human tumour cells (NCI), 48 h
[1] = tested on: K562
[2] = tested on: CCRF-CEM
[3] = tested on: OVCAR-4
[4] = tested on: DLD-1
[5] = tested on: MOLT-4
[6] = tested on: TK-10
[7] = tested on: SK-MEL-28
[8] = tested on: LOX IMVI
[9] = tested on: EKVX
[10] = tested on: UACC-62
[11] = tested on: HCT-15
[12] = tested on: ACHN
[13] = tested on: NCI-H460
[14] = tested on: HCC 2998
[15] = tested on: UACC-257
[16] = tested on: MCF7
[17] = tested on: T47D
[18] = tested on: MDA-MB-231
[19] = tested on: Hs-578T

SMILES	GI50 [1]	GI50 [2]	GI50 [3]	GI50 [4]	GI50 [5]	GI50 [6]	GI50 [7]	GI50 [8]	GI50 [9]	GI50 [10]	GI50 [11] [µM]	GI50 [12]	GI50 [13]	GI50 [14]	GI50 [15]	GI50 [16]	GI50 [17]	GI50 [18]	GI50 [19]
CCOC(=O)C1=C(C)C2C3C(=O)OC(=O)C3C1(C)C1C(=O)OC(=O)C21 (stereo not drawn)	> 100 µM (inactive)	> 100 µM (inactive)	> 100 µM (inactive)	> 100 µM (inactive)	> 100 µM (inactive)	> 100 µM (inactive)	> 100 µM (inactive)	> 100 µM (inactive)	> 100 µM (inactive)	> 100 µM (inactive)	> 100	> 100 µM (inactive)	> 100 µM (inactive)	> 100 µM (inactive)	> 100 µM (inactive)	–	–	–	–
O=C1NC(=O)C2C(=O)NC(=O)C1C2Cc1ccco1 (stereo not drawn)	> 100 µM (inactive)	> 100 µM (inactive)	> 100 µM (inactive)	> 100 µM (inactive)	> 100 µM (inactive)	> 100 µM (inactive)	> 100 µM (inactive)	> 100 µM (inactive)	> 100 µM (inactive)	> 100 µM (inactive)	> 100	> 100 µM (inactive)	> 100 µM (inactive)	> 100 µM (inactive)	> 100 µM (inactive)	–	–	–	–
CSc1ccc(/C=C2\CN(C)C/C(=C\c3ccc(SC)cc3)C2=O)cc1	22.2 µM (inactive)	23.1 µM (inactive)	> 100 µM (inactive)	11.5 µM (inactive)	19.4 µM (inactive)	56.6 µM (inactive)	> 100 µM (inactive)	6.47 µM (inactive)	81.3 µM (inactive)	55.8 µM (inactive)	32	40.6 µM (inactive)	29.2 µM (inactive)	79.4 µM (inactive)	31.7 µM (inactive)	–	–	–	–
O=C(/C=N/O)Nc1ccc(Cl)c(I)c1	24 µM (inactive)	26.7 µM (inactive)	28.6 µM (inactive)	27.1 µM (inactive)	19.6 µM (inactive)	33.6 µM (inactive)	27.7 µM (inactive)	11.1 µM (inactive)	10.8 µM (inactive)	10.2 µM (inactive)	14.4	16.7 µM (inactive)	21.6 µM (inactive)	14.1 µM (inactive)	28.6 µM (inactive)	–	–	–	–
COC(=O)C1=CC(O)CCC1c1ccc(OC)cc1 (stereo not drawn)	> 100 µM (inactive)	> 100 µM (inactive)	> 100 µM (inactive)	> 100 µM (inactive)	> 100 µM (inactive)	> 100 µM (inactive)	> 100 µM (inactive)	> 100 µM (inactive)	> 100 µM (inactive)	> 100 µM (inactive)	> 100	> 100 µM (inactive)	> 100 µM (inactive)	> 100 µM (inactive)	> 100 µM (inactive)	–	–	–	–
CC(=O)C1=C(O)C(N)C2Cc3c(c(O)c4c(O)c(C)ccc4c3C)C(=O)C2(O)C1=O (stereo not drawn)	1.87 µM (inactive)	3.24 µM (inactive)	5.61 µM (inactive)	2 µM (inactive)	1.71 µM (inactive)	1.93 µM (inactive)	2.06 µM (inactive)	0.973 µM (active)	1.89 µM (inactive)	1.25 µM (inactive)	0.774	1.35 µM (inactive)	1.3 µM (inactive)	3.28 µM (inactive)	2.48 µM (inactive)	–	–	–	–
Cc1cc(O)c(C=O)c(C)c1CCC1(C)C=Cc2cc(O)ccc2O1 (stereo not drawn)	24.3 µM (inactive)	17.1 µM (inactive)	21.9 µM (inactive)	19.6 µM (inactive)	18.4 µM (inactive)	46.5 µM (inactive)	22.7 µM (inactive)	19.6 µM (inactive)	29.5 µM (inactive)	16.7 µM (inactive)	22.9	15.7 µM (inactive)	22.6 µM (inactive)	29.4 µM (inactive)	18.7 µM (inactive)	–	–	–	–
COc1cc(/C=C2/C(=O)N(C(=O)c3ccccc3O)N=C2C)ccc1O	0.104 µM (active)	0.201 µM (active)	1.28 µM (inactive)	0.0603 µM (active)	–	5.4 µM (inactive)	34.4 µM (inactive)	0.465 µM (active)	0.586 µM (active)	0.0518 µM (active)	0.406	0.123 µM (active)	0.161 µM (active)	4.65 µM (inactive)	0.838 µM (active)	0.514 µM (active)	0.404 µM (active)	> 100 µM (inactive)	0.272 µM (active)
CC(C)C1CC(O)O[C@@H]([C@@H](C)[C@H]2CC(=O)[C@@H]3[C@@H]4[C@@H](O)[C@H](O)[C@H]5[C@@H](O)[C@H](O)CC[C@]5(C)[C@H]4CC[C@]23C)C1 (stereo partly drawn)	> 100 µM (inactive)	> 100 µM (inactive)	> 100 µM (inactive)	> 100 µM (inactive)	> 100 µM (inactive)	38.3 µM (inactive)	> 100 µM (inactive)	50.1 µM (inactive)	66.1 µM (inactive)	79.4 µM (inactive)	> 100	24.4 µM (inactive)	> 100 µM (inactive)	> 100 µM (inactive)	5.06 µM (inactive)	–	–	–	–
